What follows are molecules tested on NL-RLuc virus (assay: Inhibition of HIV replication (NL-RLuc virus, luciferase readout in MT-2 cells)). Details: Human immunodeficiency virus 1, MT2, 120 h, MT-2 cells infected with NL-RLuc virus, 5 days of incubation, 10% FBS, at least 2 experiments.
Type: cell-based
Text: Inhibition of HIV Replication:
A recombinant NL-RLuc proviral clone was constructed in which a section of the nef gene form NL4-3 was replaced with the Renilla Luciferase gene. This virus is fully infectious and can undergo multiple cycles of replication in cell culture. In addition, the luciferous reporter provides a simple and easy method for quantitating the extent of virus growth and consequently, the antiviral activity of test compounds. The plasmid pNLRLuc contains the proviral NL-Rluc DNA cloned into pUC18 at the PvuII site. The NL-RLuc virus was prepared by transfection of 293T cells with the plasmid pNLRLuc. Transfections were performed using the LipofectAMINE PLUS kit form Invitrogen (Carlsbad, Calif.) according to the manufacturer and the virus generated was titered in MT-2 cells. For susceptibility analyses, the titrated virus was used to infect MT-2 cells in the presence of compound, and after 5 days of incubation, cells were processed and quantitated for virus growth by the amount of expressed luciferase. Assay media was RPMI 1640 supplemented with 10% heat inactivated fetal bovine serum (FBS), 100 units/ml penicillin G/100 units/ml streptomycin, 10 mM HEPES buffer pH 7.55 and 2 mM L-glutamine. The results form at least 2 experiments were used to calculate the EC50 values. Luciferase was quantitated using the Dual Luciferase kit form Promega (Madison, Wis.). Susceptibility of viruses to compounds was determined by incubation in the presence of serial dilutions of the compound. The 50% effective concentration (EC50) was calculated by using the exponential form of the median effect equation where (Fa)=1/[1+(ED50/drug conc.)^m](Johnson V A, Byington R T. Infectivity Assay. In Techniques in HIV Research. ed. Aldovini A, Walker B D. 71-76. New York: Stockton Press. 1990).

SMILES | EC50
Cc1cccc(CCOc2ccc(-c3cnc(C)c([C@H](OC(C)(C)C)C(=O)O)c3N3CCC(C)(C)CC3)nc2)c1 [Example 290, (2S)-2-(tert-butoxy)-2-[4′-(4,4-dimethylpiperidin-1-yl)-6′-methyl-5-[2-(3-methylphenyl)ethoxy]-[2,3′-bipyridine]-5′-yl]acetic acid] | 1 nM
Cc1ncc(-c2cncc(CCC(C)C)c2)c(N2CCC(C)(C)CC2)c1[C@H](OC(C)(C)C)C(=O)O [Example 419, (S)-2-(tert-Butoxy)-2-(4-(4,4-dimethylpiperidin-1-yl)-5′-isopentyl-6-methyl-[3, 3′-bipyridin]-5-yl)acetic acid] | 31 nM
Cc1ncc(-c2ccc(OCCc3cccc(F)c3)nc2)c(N2CCC(C)(C)CC2)c1[C@H](OC(C)(C)C)C(=O)O [Example 255, (S)-2-(tert-Butoxy)-2-(4-(4,4-dimethylpiperidin-1-yl)-6′-(3-fluorophenethoxy)-6-methyl-[3,3′-bipyridin]-5-yl)acetic acid] | 0.8 nM
Cc1ncc(-c2ccc(OCCc3ccc(F)cc3)c(F)c2)c(N2CCC(C)(C)CC2)c1[C@H](OC(C)(C)C)C(=O)O [Example 122, (S)-2-(tert-Butoxy)-2-(4-(4,4-dimethylpiperidin-1-yl)-5-(3-fluoro-4-(4-fluorophenethoxy)phenyl)-2-methylpyridin-3-yl)acetic acid] | 1 nM
Cc1ncc(-c2ccc(OCCc3cccc(Cl)c3F)cn2)c(N2CCC(C)(C)CC2)c1[C@H](OC(C)(C)C)C(=O)O [Example 354, (2S)-2-(tert-butoxy)-2-{5-[2-(3-chloro-2-fluorophenyl)ethoxy]-4′-(4,4-dimethylpiperidin-1-yl)-6′-methyl-[2,3′-bipyridine]-5′-yl}acetic acid] | 0.5 nM
Cc1ccnc(Nc2nc(C)c([C@H](OC(C)(C)C)C(=O)O)c(N3CCC(C)(C)CC3)c2-c2ccc(OCCc3ccc(F)cc3)cc2)c1 [Example 79, (S)-2-(tert-Butoxy)-2-(4-(4,4-dimethylpiperidin-1-yl)-5-(4-(4-fluorophenethoxy)phenyl)-2-methyl-6-((4-methylpyridin-2-yl)amino)pyridin-3-yl)acetic acid] | 6 nM
Cc1ccccc1CCOc1ccc(-c2cnc(C)c([C@H](OC(C)(C)C)C(=O)O)c2N2CCC(C)(C)CC2)nc1 [Example 289, (2S)-2-(tert-butoxy)-2-[4′-(4,4-dimethylpiperidin-1-yl)-6′-methyl-5-[2-(2-methylphenyl)ethoxy]-[2,3′-bipyridine]-5′-yl]acetic acid] | 1 nM
Cc1nc(N)c(-c2ccc(OCCc3ccc(F)cc3)c(F)c2F)c(N2CCC(C)(C)CC2)c1[C@H](OC(C)(C)C)C(=O)O (single isomer, unassigned) [Example 70] | 2 nM
COCCNc1nc(C)c([C@H](OC(C)(C)C)C(=O)O)c(N2CCC(C)(C)CC2)c1-c1ccc(OCCc2ccc(F)cc2)cc1 [Example 27, (S)-2-(tert-Butoxy)-2-(4-(4,4-dimethylpiperidin-1-yl)-5-(4-(4-fluorophenethoxy)phenyl)-6-((2-methoxyethyl)amino)-2-methylpyridin-3-yl)acetic acid] | 0.7 nM
Cc1ncc(-c2ccc3ccccc3n2)c(N2CCC(C)(C)CC2)c1[C@H](OC(C)(C)C)C(=O)O [Example 266, (S)-2-(tert-Butoxy)-2-(4-(4,4-dimethylpiperidin-1-yl)-2-methyl-5-(quinolin-2-yl)pyridin-3-yl)acetic acid] | 11 nM
Cc1cc(-c2cnc(C)c([C@H](OC(C)(C)C)C(=O)O)c2N2CCC(C)(C)CC2)ncc1OCCc1ccc(F)cc1 [Example 248, (S)-2-(tert-Butoxy)-2-(4′-(4,4-dimethylpiperidin-1-yl)-5-(4-fluorophenethoxy)-4, 6′-dimethyl-[2, 3′-bipyridin]-5′-yl)acetic acid] | 1 nM
Cc1cc(-c2cnc(C)c([C@H](OC(C)(C)C)C(=O)O)c2N2CCC(C)(C)CC2)ccn1 [Example 142, (2S)-2-(tert-Butoxy)-2-[4-(4,4-dimethylpiperidin-1-yl)-2′,6-dimethyl-[3, 4′-bipyridine]-5-yl]acetic acid] | 6 nM
